# Measured values published in US20220256889A1, “PEPTIDES THAT MODULATE CALCIUM-SENSING RECEPTOR ACTIVITY FOR MODULATING KOKUMI TASTE AND PET FOOD PRODUCTS CONTAINING THE SAME” (MARS, INCORPORATED, priority 2019, published 2022).
# Where a SMILES comes first, the peptide text is derived from it. Where no end group is shown, it is not given here. [ ]: non-standard residue; d: D form. pY = N[CH](Cc1ccc(OP(=O)(O)O)cc1)C(=O)O; pT = C[CH](OP(=O)(O)O)[CH](N)C(=O)O; pS = N[CH](COP(=O)(O)O)C(=O)O
# Target: feline calcium-sensing receptor (CaSR) (feline (cat))
# Test: cell-based or functional assay
# Conditions: not given
row,Molecule,f-CaSR activity (EC50)
1,DIG[pS]E[pS]TEDQA,2 mM
2,EIVPN[pS]AEE,3.16 mM
3,IG[pS]E[pS]TEDQ,2 mM
4,IG[pS]E[pS]TEDQA,2 mM

# Target: feline CaSR (Felis catus, UniProt A0ABI7YY68)
# Test: HEK T-Rex/natClytin-fCaSR luminescence assay, activation of feline CaSR
# Assay type: cell-based
# Conditions: not given
# Method: The cells used for the assays were HEK293 derived HEK T-Rex/natClytin-fCaSR cells. For the assays, the cells were plated on […] culture plates with a clear bottom for reading the luminescence in the wells. The setup of the assay for standard assays on the FlexStation was as follows. The wells containing the cells had 20 ul of calcium-free Tyrode's buffer at the beginning of the assay. 20 ul of each ligand at a specified concentration was injected on the cells and the response of the cells was measured for 90 sec at 1.94 sec intervals. The resulting curves were analyzed and reduced using the software provided by Molecular Devices, SoftMax Pro (version 5.4.1).
# Each peptide was assayed on two separate occasions at least, with four repetitions of each concentration applied to the cells. In parallel, the same tests were run on a mock cell line with a mock vector, in order to confirm the specificity of any signals measured.
# The data obtained from the FlexStation was used to trace dose-response curves for each ligand. These graphs were plotted using GraphPad Prism 7.03 software with the [Agonist] vs. response—Variable slope (four parameters) plot. The same formula was used to calculate the EC50 value with the associated Standard Error. Each plot contains the mean data points with an SEM calculated by the software for each data point.
# One of the concerns during the planning of these assays was that it was possible that some of these peptides could bind the divalent calcium cation and cause a non-specific response from the receptor. In order to ensure that the interaction between the receptor and the peptides was measured and not with calcium, the peptides were synthesized in guaranteed calcium-free conditions. Similarly, all the assays were performed using calcium-free reagents.
row,Molecule,EC50
1,CC(NC(=O)C(N)CC(=O)O)C(=O)NC(CCC(=O)O)C(=O)O (stereo not drawn) [Asp-Ala-Glu] (H-Asp-Ala-Glu-OH; configuration not given here),3.54 ± 0.05 mM
2,NC(CC(=O)O)C(=O)NC(CCC(=O)O)C(=O)NC(CCC(=O)O)C(=O)O (stereo not drawn) [Asp-Glu-Glu] (H-Asp-Glu-Glu-OH; configuration not given here),2.59 ± 0.09 mM
3,CC(C)C(NC(=O)C(N)CC(=O)O)C(=O)NC(CC(=O)O)C(=O)O (stereo not drawn) [Asp-Val-Asp] (H-Asp-Val-Asp-OH; configuration not given here),3.41 ± 0.05 mM
4,"CC(C)C(NC(=O)C(N)CC(=O)O)C(=O)NC(CCC(=O)O)C(=O)O (stereo not drawn) [BC 01, Asp-Val-Glu] (H-Asp-Val-Glu-OH; configuration not given here)",3.3 ± 0.15 mM
5,"CC[C@H](C)[C@H](N)C(=O)NCC(=O)N[C@@H](COP(=O)(O)O)C(=O)N[C@@H](CCC(=O)O)C(=O)N[C@@H](COP(=O)(O)O)C(=O)N[C@H](C(=O)N[C@@H](CCC(=O)O)C(=O)N[C@@H](CC(=O)O)C(=O)N[C@@H](CCC(N)=O)C(=O)O)[C@@H](C)O [BC 06, Ile-Gly-pSer-Glu-pSer-Thr-Glu-Asp-Gln] (H-IG[pS]E[pS]TEDQ-OH; N-terminus and C-terminus assumed)",~1.6 mM
6,CC(C)C(NC(=O)C(N)CS)C(=O)NC(CS)C(=O)O (stereo not drawn) [Cys-Val-Cys] (H-Cys-Val-Cys-OH; configuration not given here),~12.6 mM
7,"N[C@@H](CCC(=O)O)C(=O)O [Glu, glutamic acid, reference compound]",~5.9 mM
8,CC(C)C(NC(=O)C(N)CCC(=O)O)C(=O)NC(CC(=O)O)C(=O)O (stereo not drawn) [Glu-Val-Asp],3.32 ± 0.77 mM
9,CC(C)C(NC(=O)C(N)CCC(=O)O)C(=O)NC(CCC(=O)O)C(=O)O (stereo not drawn) [Glu-Val-Glu] (H-Glu-Val-Glu-OH; configuration not given here),3.54 ± 0.05 mM
10,NC(CO)C(=O)NC(CCC(=O)O)C(=O)NC(CO)C(=O)O (stereo not drawn) [Ser-Glu-Ser] (H-Ser-Glu-Ser-OH; configuration not given here),3.56 ± 0.11 mM
11,CC(C)C(NC(=O)C(N)COP(=O)(O)O)C(=O)NC(CCC(=O)O)C(=O)O (stereo not drawn) [pSer-Val-Glu] (H-[pS]-Val-Glu-OH; configuration not given here),3.04 ± 0.03 mM
12,NC(Cc1ccc(OP(=O)(O)O)cc1)C(=O)NC(CCC(=O)O)C(=O)NC(Cc1ccc(OP(=O)(O)O)cc1)C(=O)O (stereo not drawn) [pTyr-Glu-pTyr] (H-[pY]-Glu-[pY]-OH; configuration not given here),2.22 ± 0.22 mM
13,"CC(C)[C@H](NC(=O)CC[C@H](N)C(=O)O)C(=O)NCC(=O)O [γ-Glu-Val-Gly, reference compound]",5.78 ± 2.41 mM

# Same assay, conditions: HEK T-Rex/natClytin-fCaSR cells, calcium-free Tyrode's buffer; ≈ values are model estimates without standard error; read-out: EC50 ± Std Error
row,Molecule,EC50
1,"N[C@@H](CC(=O)O)C(=O)O [Asp, aspartic acid, reference compound]",~6.1 mM
2,"[Ca+2].[Cl-].[Cl-] [CaC12, CaCl2, reference compound]",1.6 ± 0.06 mM

# The remaining lines, values ahead:
row,EC50,Molecule
1,6.71 ± 0.57 mM,"N[C@@H](CCC(=O)N[C@@H](CS)C(=O)NCC(=O)O)C(=O)O [GSH, reference compound]"
2,6.72 ± 0.13 mM,"[Cl-].[Cl-].[Mg+2] [MgC12, reference compound]"
3,3.04 ± 0.21 mM,NC(COP(=O)(O)O)C(=O)NC(CCC(=O)O)C(=O)NC(COP(=O)(O)O)C(=O)O (stereo not drawn) [pSer-Glu-pSer] (H-[pS]-Glu-[pS]-OH; configuration not given here)
4,2.63 ± 0.04 mM,CC(C)C(NC(=O)C(N)COP(=O)(O)O)C(=O)NC(COP(=O)(O)O)C(=O)O (stereo not drawn) [pSer-Val-pSer] (H-[pS]-Val-[pS]-OH; configuration not given here)
5,1.98 ± 0.07 mM,CC(OP(=O)(O)O)C(N)C(=O)NC(CCC(=O)O)C(=O)NC(C(=O)O)C(C)OP(=O)(O)O (stereo not drawn) [pThr-Glu-pThr] (H-[pT]-Glu-[pT]-OH; configuration not given here)
6,~6.7 mM,"CSCC[C@H](NC(=O)CC[C@H](N)C(=O)O)C(=O)O [γ-Glu-Met, reference compound]"
7,~7.8 mM,"N[C@@H](CCC(=O)N[C@@H](Cc1ccccc1)C(=O)O)C(=O)O [γ-Glu-Phe, reference compound]"
8,~6.9 mM,"N[C@@H](CCC(=O)N[C@@H](Cc1ccc(O)cc1)C(=O)O)C(=O)O [γ-Glu-Tyr, reference compound]"
9,~3.9 mM,"CC(C)[C@H](NC(=O)CC[C@H](N)C(=O)O)C(=O)O [γ-Glu-Val, reference compound]"

# System: feline Kokumi taste receptor (f-CaSR)
# Test: feline Kokumi taste receptor assay (f-CaSR), agonistic activity of isolated samples
# Assay type: cell-based
# Conditions: isolated samples from hydrolysate T648
# Method: Aliquots of the isolated samples were tested for their agonistic activity in feline Kokumi taste receptor assays (f-CaSR).
Molecule,f-CaSR activity (EC50),EC50
"CC(C)C(NC(=O)C(N)CC(=O)O)C(=O)NC(CCC(=O)O)C(=O)O (stereo not drawn) [BC 01, Asp-Val-Glu] (H-Asp-Val-Glu-OH; configuration not given here)",,6.32 mM
"CC[C@H](C)[C@H](N)C(=O)NCC(=O)N[C@@H](COP(=O)(O)O)C(=O)N[C@@H](CCC(=O)O)C(=O)N[C@@H](COP(=O)(O)O)C(=O)N[C@H](C(=O)N[C@@H](CCC(=O)O)C(=O)N[C@@H](CC(=O)O)C(=O)N[C@@H](CCC(N)=O)C(=O)O)[C@@H](C)O [BC 06, Ile-Gly-pSer-Glu-pSer-Thr-Glu-Asp-Gln] (H-IG[pS]E[pS]TEDQ-OH; N-terminus and C-terminus assumed)",,2 mM

# Continued, values first:
f-CaSR activity (EC50),EC50,Molecule
Not active,,5-oxoproline-Lys-Glu-Pro [BC 02]
,2 mM,"CC[C@H](C)[C@H](N)C(=O)NCC(=O)N[C@@H](COP(=O)(O)O)C(=O)N[C@@H](CCC(=O)O)C(=O)N[C@@H](COP(=O)(O)O)C(=O)N[C@H](C(=O)N[C@@H](CCC(=O)O)C(=O)N[C@@H](CC(=O)O)C(=O)N[C@@H](CCC(N)=O)C(=O)N[C@@H](C)C(=O)O)[C@@H](C)O [BC 08, Ile-Gly-pSer-Glu-pSer-Thr-Glu-Asp-Gln-Ala] (H-IG[pS]E[pS]TEDQA-OH; N-terminus and C-terminus assumed)"
,3.16 mM,"CC[C@H](C)[C@H](NC(=O)[C@@H](N)CCC(=O)O)C(=O)N[C@H](C(=O)N1CCC[C@H]1C(=O)N[C@@H](CC(N)=O)C(=O)N[C@@H](COP(=O)(O)O)C(=O)N[C@@H](C)C(=O)N[C@@H](CCC(=O)O)C(=O)N[C@@H](CCC(=O)O)C(=O)O)C(C)C [BC 09, Glu-Ile-Val-Pro-Asn-pSer-Ala-Glu-Glu] (H-EIVPN[pS]AEE-OH; N-terminus and C-terminus assumed)"
,2 mM,"CC[C@H](C)[C@H](NC(=O)[C@@H](N)CC(=O)O)C(=O)NCC(=O)N[C@@H](COP(=O)(O)O)C(=O)N[C@@H](CCC(=O)O)C(=O)N[C@@H](COP(=O)(O)O)C(=O)N[C@H](C(=O)N[C@@H](CCC(=O)O)C(=O)N[C@@H](CC(=O)O)C(=O)N[C@@H](CCC(N)=O)C(=O)N[C@@H](C)C(=O)O)[C@@H](C)O [BC 10, Asp-Ile-Gly-pSer-Glu-pSer-Thr-Glu-Asp-Gln-Ala] (H-DIG[pS]E[pS]TEDQA-OH; N-terminus and C-terminus assumed)"

# Target: T1, feline calcium-sensing receptor (CaSR) (feline (cat))
# T1 chain: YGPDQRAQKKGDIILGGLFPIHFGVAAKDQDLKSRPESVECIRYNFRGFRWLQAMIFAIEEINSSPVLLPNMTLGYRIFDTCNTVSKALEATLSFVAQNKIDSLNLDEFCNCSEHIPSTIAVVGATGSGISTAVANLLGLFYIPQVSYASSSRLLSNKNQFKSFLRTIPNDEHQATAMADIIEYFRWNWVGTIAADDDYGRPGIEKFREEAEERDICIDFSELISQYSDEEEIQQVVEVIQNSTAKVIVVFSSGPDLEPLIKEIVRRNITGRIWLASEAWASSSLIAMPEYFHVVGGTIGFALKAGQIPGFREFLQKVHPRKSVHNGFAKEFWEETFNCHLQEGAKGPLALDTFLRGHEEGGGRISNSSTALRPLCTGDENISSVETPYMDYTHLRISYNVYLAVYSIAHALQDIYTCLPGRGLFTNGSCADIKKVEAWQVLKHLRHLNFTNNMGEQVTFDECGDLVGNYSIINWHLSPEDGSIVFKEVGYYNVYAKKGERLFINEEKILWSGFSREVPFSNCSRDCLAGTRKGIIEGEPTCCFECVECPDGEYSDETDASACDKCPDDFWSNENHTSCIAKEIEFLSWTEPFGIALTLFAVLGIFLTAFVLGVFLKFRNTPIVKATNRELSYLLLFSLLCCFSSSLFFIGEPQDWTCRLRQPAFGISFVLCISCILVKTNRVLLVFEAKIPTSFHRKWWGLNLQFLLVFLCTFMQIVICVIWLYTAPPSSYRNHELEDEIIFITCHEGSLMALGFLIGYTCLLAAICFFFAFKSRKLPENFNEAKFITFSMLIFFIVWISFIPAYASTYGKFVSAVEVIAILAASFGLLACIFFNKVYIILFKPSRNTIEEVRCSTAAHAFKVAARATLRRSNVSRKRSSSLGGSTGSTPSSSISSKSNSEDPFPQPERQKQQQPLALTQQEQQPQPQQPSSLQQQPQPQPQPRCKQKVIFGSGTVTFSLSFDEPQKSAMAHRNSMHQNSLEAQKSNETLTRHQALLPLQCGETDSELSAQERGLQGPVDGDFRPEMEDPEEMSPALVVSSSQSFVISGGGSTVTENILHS
# Test: cell-based or functional assay
# Conditions: not given
row,Molecule,f-CaSR activity (EC50)
1,DVE [Asp-Val-Glu],6.32 mM
